The first assay relates to 349418-098-R-PDC complex spheroid growth. Put plainly: Anticancer human tumor 349418-098-R-PDC patient-derived lung adenocarcinoma cell line growth inhibition [AhR]. The conditions noted are these: second compound 0.1 µM; first compound 0.316 µM; hits give low values. In short, it runs like this:
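Complex tumor spheroids co-cultured with HUVEC and human MSC stroma; AhR antagonists tested in combination with standard-of-care and investigational agents. Top concentration at or near clinical Cmax (else 10 microM), half-log dilutions; growth expressed as percent test/control.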
For orientation: viability, T/C means the ratio of treated to control. With `Nc1ncn(C2CC(O)C(CO)O2)c(=O)n1` (centres undefined) + Cc1ccccc1N=Nc1ccc(NC(=O)c2ccnn2C)c(C)c1, the viability, T/C is 39.1%.

Still in this assay, the particulars now being: second compound 0.1 µM; first compound 1 µM; hits give low values.
On to `CC(C)c1c(-c2ccccc2)nc2c(C#N)c[nH]n2c1=O` + CC(CO)NC(=O)c1cc(-c2ccc(Cl)cc2)nn(-c2cnn(C)c2)c1=O, for which the viability, T/C is 68.5%.
The same measure, in the same setting: the figure for `CC1COCCN1c1cc(-c2ccnn2C)c2ccnc(-c3ccn[nH]3)c2n1` (centres undefined) + CC(CO)NC(=O)c1cc(-c2ccc(Cl)cc2)nn(-c2cnn(C)c2)c1=O is 10.3%; for `COc1ccc([C@@H](O)c2cc(-c3ncnc4cc(N5CCOCC5)ccc34)c(F)cc2Cl)nn1` + CC(CO)NC(=O)c1cc(-c2ccc(Cl)cc2)nn(-c2cnn(C)c2)c1=O it is 75.7%.
Take `COc1cccc2c1C(=O)c1c(O)c3c(c(O)c1C2=O)CC(O)(C(=O)CO)CC3OC1CC(N)C(O)C(C)O1` (centres undefined) + Cc1ccccc1N=Nc1ccc(NC(=O)c2ccnn2C)c(C)c1: the viability, T/C was 0.44%.
For the compound `Nc1ncn(C2CC(O)C(CO)O2)c(=O)n1` (centres undefined) + Cc1ccccc1N=Nc1ccc(NC(=O)c2ccnn2C)c(C)c1, the viability, T/C is 30%.

The assay is the same for the next values; noted with them: second compound 0.1 µM; first compound 3.16 µM; hits give low values.
Consider `CC(C)c1c(-c2ccccc2)nc2c(C#N)c[nH]n2c1=O` + CC(CO)NC(=O)c1cc(-c2ccc(Cl)cc2)nn(-c2cnn(C)c2)c1=O, for which the viability, T/C was 77%.
Take `COc1ccc([C@@H](O)c2cc(-c3ncnc4cc(N5CCOCC5)ccc34)c(F)cc2Cl)nn1` + CC(CO)NC(=O)c1cc(-c2ccc(Cl)cc2)nn(-c2cnn(C)c2)c1=O: the viability, T/C was 35.3%.
For the compound `COc1cccc2c1C(=O)c1c(O)c3c(c(O)c1C2=O)CC(O)(C(=O)CO)CC3OC1CC(N)C(O)C(C)O1` (centres undefined) + Cc1ccccc1N=Nc1ccc(NC(=O)c2ccnn2C)c(C)c1, the viability, T/C is 4.06%.

The assay is the same for the next values; noted with them: second compound 0.1 µM; first compound 10 µM; hits give low values.
On to `CC(C)c1c(-c2ccccc2)nc2c(C#N)c[nH]n2c1=O` + CC(CO)NC(=O)c1cc(-c2ccc(Cl)cc2)nn(-c2cnn(C)c2)c1=O, for which the viability, T/C was 78%.
`COc1ccc([C@@H](O)c2cc(-c3ncnc4cc(N5CCOCC5)ccc34)c(F)cc2Cl)nn1` + CC(CO)NC(=O)c1cc(-c2ccc(Cl)cc2)nn(-c2cnn(C)c2)c1=O: the viability, T/C is 13.8%.
On the same count and under the same terms, next, `COc1cccc2c1C(=O)c1c(O)c3c(c(O)c1C2=O)CC(O)(C(=O)CO)CC3OC1CC(N)C(O)C(C)O1` (centres undefined) + Cc1ccccc1N=Nc1ccc(NC(=O)c2ccnn2C)c(C)c1: 7.47%.

The assay is the same for the next values; noted with them: second compound 0.316 µM; first compound 0.00316 µM; hits give low values.
For the compound `CC1COCCN1c1cc(-c2ccnn2C)c2ccnc(-c3ccn[nH]3)c2n1` (centres undefined) + CC(CO)NC(=O)c1cc(-c2ccc(Cl)cc2)nn(-c2cnn(C)c2)c1=O, the viability, T/C is 87.4%.
On the same count and under the same terms, the figure for `Nc1ncn(C2CC(O)C(CO)O2)c(=O)n1` (centres undefined) + Cc1ccccc1N=Nc1ccc(NC(=O)c2ccnn2C)c(C)c1 is 77.8%.

The assay is the same for the next values; noted with them: second compound 0.316 µM; first compound 0.01 µM; hits give low values.
Regarding `CC1COCCN1c1cc(-c2ccnn2C)c2ccnc(-c3ccn[nH]3)c2n1` (centres undefined) + CC(CO)NC(=O)c1cc(-c2ccc(Cl)cc2)nn(-c2cnn(C)c2)c1=O, the viability, T/C is 92.3%.
The same measure, in the same setting: next, `Nc1ncn(C2CC(O)C(CO)O2)c(=O)n1` (centres undefined) + Cc1ccccc1N=Nc1ccc(NC(=O)c2ccnn2C)c(C)c1: 111%.

The same assay, now with this note: second compound 0.316 µM; first compound 0.0316 µM; hits give low values.
As for `CC(C)c1c(-c2ccccc2)nc2c(C#N)c[nH]n2c1=O` + CC(CO)NC(=O)c1cc(-c2ccc(Cl)cc2)nn(-c2cnn(C)c2)c1=O, the viability, T/C is 66.9%.
The same measure, in the same setting: next, `CC1COCCN1c1cc(-c2ccnn2C)c2ccnc(-c3ccn[nH]3)c2n1` (centres undefined) + CC(CO)NC(=O)c1cc(-c2ccc(Cl)cc2)nn(-c2cnn(C)c2)c1=O: 89.1%; `COc1ccc([C@@H](O)c2cc(-c3ncnc4cc(N5CCOCC5)ccc34)c(F)cc2Cl)nn1` + CC(CO)NC(=O)c1cc(-c2ccc(Cl)cc2)nn(-c2cnn(C)c2)c1=O: 89.3%.
On the same count and under the same terms, next, `COc1cccc2c1C(=O)c1c(O)c3c(c(O)c1C2=O)CC(O)(C(=O)CO)CC3OC1CC(N)C(O)C(C)O1` (centres undefined) + Cc1ccccc1N=Nc1ccc(NC(=O)c2ccnn2C)c(C)c1: 21.5%; `Nc1ncn(C2CC(O)C(CO)O2)c(=O)n1` (centres undefined) + Cc1ccccc1N=Nc1ccc(NC(=O)c2ccnn2C)c(C)c1: 73.1%.

The same assay, now with this note: second compound 0.316 µM; first compound 0.1 µM; hits give low values.
With `CC(C)c1c(-c2ccccc2)nc2c(C#N)c[nH]n2c1=O` + CC(CO)NC(=O)c1cc(-c2ccc(Cl)cc2)nn(-c2cnn(C)c2)c1=O, the viability, T/C was 93.3%.
Consider `CC1COCCN1c1cc(-c2ccnn2C)c2ccnc(-c3ccn[nH]3)c2n1` (centres undefined) + CC(CO)NC(=O)c1cc(-c2ccc(Cl)cc2)nn(-c2cnn(C)c2)c1=O, for which the viability, T/C is 31.2%.
On the same count and under the same terms, next, `COc1ccc([C@@H](O)c2cc(-c3ncnc4cc(N5CCOCC5)ccc34)c(F)cc2Cl)nn1` + CC(CO)NC(=O)c1cc(-c2ccc(Cl)cc2)nn(-c2cnn(C)c2)c1=O: 89.7%.
For the compound `COc1cccc2c1C(=O)c1c(O)c3c(c(O)c1C2=O)CC(O)(C(=O)CO)CC3OC1CC(N)C(O)C(C)O1` (centres undefined) + Cc1ccccc1N=Nc1ccc(NC(=O)c2ccnn2C)c(C)c1, the viability, T/C was 17.8%.
Turning to `Nc1ncn(C2CC(O)C(CO)O2)c(=O)n1` (centres undefined) + Cc1ccccc1N=Nc1ccc(NC(=O)c2ccnn2C)c(C)c1, the viability, T/C is 38.8%.

Still in this assay, the particulars now being: second compound 0.316 µM; first compound 0.316 µM; hits give low values.
On to `CC(C)c1c(-c2ccccc2)nc2c(C#N)c[nH]n2c1=O` + CC(CO)NC(=O)c1cc(-c2ccc(Cl)cc2)nn(-c2cnn(C)c2)c1=O, for which the viability, T/C was 67.7%.
For the compound `CC1COCCN1c1cc(-c2ccnn2C)c2ccnc(-c3ccn[nH]3)c2n1` (centres undefined) + CC(CO)NC(=O)c1cc(-c2ccc(Cl)cc2)nn(-c2cnn(C)c2)c1=O, the viability, T/C was 15.8%.
In the case of `COc1ccc([C@@H](O)c2cc(-c3ncnc4cc(N5CCOCC5)ccc34)c(F)cc2Cl)nn1` + CC(CO)NC(=O)c1cc(-c2ccc(Cl)cc2)nn(-c2cnn(C)c2)c1=O, the viability, T/C is 87%.
For `COc1cccc2c1C(=O)c1c(O)c3c(c(O)c1C2=O)CC(O)(C(=O)CO)CC3OC1CC(N)C(O)C(C)O1` (centres undefined) + Cc1ccccc1N=Nc1ccc(NC(=O)c2ccnn2C)c(C)c1, the viability, T/C is 5.6%.
Turning to `Nc1ncn(C2CC(O)C(CO)O2)c(=O)n1` (centres undefined) + Cc1ccccc1N=Nc1ccc(NC(=O)c2ccnn2C)c(C)c1, the viability, T/C is 37.7%.

Staying with this assay, now noted: second compound 0.316 µM; first compound 1 µM; hits give low values.
For `CC(C)c1c(-c2ccccc2)nc2c(C#N)c[nH]n2c1=O` + CC(CO)NC(=O)c1cc(-c2ccc(Cl)cc2)nn(-c2cnn(C)c2)c1=O, the viability, T/C was 78.7%.
For `CC1COCCN1c1cc(-c2ccnn2C)c2ccnc(-c3ccn[nH]3)c2n1` (centres undefined) + CC(CO)NC(=O)c1cc(-c2ccc(Cl)cc2)nn(-c2cnn(C)c2)c1=O, the viability, T/C was 9.1%.
As for `COc1ccc([C@@H](O)c2cc(-c3ncnc4cc(N5CCOCC5)ccc34)c(F)cc2Cl)nn1` + CC(CO)NC(=O)c1cc(-c2ccc(Cl)cc2)nn(-c2cnn(C)c2)c1=O, the viability, T/C is 55.5%.
With `COc1cccc2c1C(=O)c1c(O)c3c(c(O)c1C2=O)CC(O)(C(=O)CO)CC3OC1CC(N)C(O)C(C)O1` (centres undefined) + Cc1ccccc1N=Nc1ccc(NC(=O)c2ccnn2C)c(C)c1, the viability, T/C was 1.97%.
On the same count and under the same terms, the figure for `Nc1ncn(C2CC(O)C(CO)O2)c(=O)n1` (centres undefined) + Cc1ccccc1N=Nc1ccc(NC(=O)c2ccnn2C)c(C)c1 is 34.5%.

The same assay, now with this note: second compound 0.316 µM; first compound 3.16 µM; hits give low values.
For the compound `CC(C)c1c(-c2ccccc2)nc2c(C#N)c[nH]n2c1=O` + CC(CO)NC(=O)c1cc(-c2ccc(Cl)cc2)nn(-c2cnn(C)c2)c1=O, the viability, T/C was 85.7%.
Turning to `COc1ccc([C@@H](O)c2cc(-c3ncnc4cc(N5CCOCC5)ccc34)c(F)cc2Cl)nn1` + CC(CO)NC(=O)c1cc(-c2ccc(Cl)cc2)nn(-c2cnn(C)c2)c1=O, the viability, T/C is 25.4%.
The same measure, in the same setting: the figure for `COc1cccc2c1C(=O)c1c(O)c3c(c(O)c1C2=O)CC(O)(C(=O)CO)CC3OC1CC(N)C(O)C(C)O1` (centres undefined) + Cc1ccccc1N=Nc1ccc(NC(=O)c2ccnn2C)c(C)c1 is 4.18%.

Still in this assay, the particulars now being: second compound 0.316 µM; first compound 10 µM; hits give low values.
As to `CC(C)c1c(-c2ccccc2)nc2c(C#N)c[nH]n2c1=O` + CC(CO)NC(=O)c1cc(-c2ccc(Cl)cc2)nn(-c2cnn(C)c2)c1=O, the viability, T/C was 60.8%.
On the same count and under the same terms, the figure for `COc1ccc([C@@H](O)c2cc(-c3ncnc4cc(N5CCOCC5)ccc34)c(F)cc2Cl)nn1` + CC(CO)NC(=O)c1cc(-c2ccc(Cl)cc2)nn(-c2cnn(C)c2)c1=O is 15.4%.
Consider `COc1cccc2c1C(=O)c1c(O)c3c(c(O)c1C2=O)CC(O)(C(=O)CO)CC3OC1CC(N)C(O)C(C)O1` (centres undefined) + Cc1ccccc1N=Nc1ccc(NC(=O)c2ccnn2C)c(C)c1, for which the viability, T/C was 7.15%.

Staying with this assay, now noted: second compound 1 µM; first compound 0.00316 µM; hits give low values.
With `CC1COCCN1c1cc(-c2ccnn2C)c2ccnc(-c3ccn[nH]3)c2n1` (centres undefined) + CC(CO)NC(=O)c1cc(-c2ccc(Cl)cc2)nn(-c2cnn(C)c2)c1=O, the viability, T/C is 112%.
On to `Nc1ncn(C2CC(O)C(CO)O2)c(=O)n1` (centres undefined) + Cc1ccccc1N=Nc1ccc(NC(=O)c2ccnn2C)c(C)c1, for which the viability, T/C is 79.6%.

Source of the values: PubChem BioAssay AID1918996 (Molecular Pharmacology Branch, DTP, NCI, 2023).
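Further: spheroids also contain HUVEC endothelial cells and human MSC stroma; spheroids exposed to agents for seven days before luminescence viability read.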
